Laboratory results taken from patent US5608091A, “Quinizarin compound, method for production thereof, and use therefor” (Nippon Shokubai Co., Ltd., priority 1993, dated 1997).

Assays:
[1] = Visible absorption spectrum (λmax, ε); format: physicochemical; conditions: for ε: in M-1 cm-1 (unit assumed)
[2] = Stability in storage of thermal transfer recorded images; conditions: 50° C., 50 hours
Method: The recorded images obtained as described above were left standing in an atmosphere kept at 50° C. for 50 hours and, after the standing, were examined to determine the presence or absence of change caused on the images owing to the standing.
(§1) Ink compositions were prepared, transfer sheets produced, and transfer recording carried out by following the procedure of Example 89 while using the dye shown in Table 11 instead. The recorded images were tested for lightfastness and then for stability in storage in the same manner as in Example 89.
as §1, with “dyes” for “dye”, “12” for “11”

Color tone of the dye = format: physicochemical; conditions: Tables 1-9
[3] = Solubility in toluene and methyl ethyl ketone, three-point scale; format: physicochemical
Source text: In these tables, the solubility is rated on the three-point scale, wherein Δ stands for a solubility of less than 1% by weight, .largecircle. for a solubility in the approximate range of 1 to 3% by weight, and .circleincircle. for a solubility of not less than 3% by weight.

With O=C1c2c(O)ccc(O)c2C(=O)c2c(F)c(Nc3c(Cl)cccc3Cl)c(F)c(F)c21 [(22)] the λ max ([1]; in chloroform) was 521 nm, the ε ([1]; in chloroform, at λ max) was 9470 and the Stability in storage [2] was “Good”. For the same compound, the Color tone (Color tone of the dye) was “Magenta”, the “Solubility in methyl ethyl ketone” value [3] was “.largecircle. (a solubility in the approximate range of 1 to 3% by weight)” and the Solubility in toluene ([3]; in toluene) was “.circleincircle. (a solubility of not less than 3% by weight)”.
In the case of CCCCCCCCOc1c(F)c2c(c(F)c1Nc1ccc(C(=O)OCC)cc1)C(=O)c1c(O)ccc(O)c1C2=O [(33)], the Stability in storage [2] is reported as “Good”.
In the case of O=C1c2ccc(Nc3c(Cl)cccc3Cl)cc2C(=O)c2c(O)ccc(O)c21 [(102)], the λ max ([1]; in toluene) is reported as 516 nm, the ε ([1]; in toluene) is reported as 15600 and the Stability in storage [2] is reported as “Good”. The Solubility ([3]; in toluene) was “Not less than 3 % by weight”.
With COc1cccc(Nc2c(F)c3c(c(F)c2Nc2cccc(OC)c2)C(=O)c2c(O)ccc(O)c2C3=O)c1 [(133)] the λ max ([1]; in chloroform) was 651 nm, the ε ([1]; in chloroform, at λ max) was 13400 and the Color tone (Color tone of the dye) was “Cyan”. For the same compound, the “Solubility in methyl ethyl ketone” value [3] was “.largecircle. (a solubility in the approximate range of 1 to 3% by weight)” and the Solubility in toluene ([3]; in toluene) was “.largecircle. (a solubility in the approximate range of 1 to 3% by weight)”.
With O=C1c2c(O)ccc(O)c2C(=O)c2c(F)c(Nc3c(Cl)cccc3Cl)c(Nc3c(Cl)cccc3Cl)c(F)c21 [(138)] the λ max ([1]; in chloroform) was 630 nm, the ε ([1]; in chloroform, at λ max) was 22300 and the Color tone (Color tone of the dye) was “Blue”. For the same compound, the “Solubility in methyl ethyl ketone” value [3] was “.largecircle. (a solubility in the approximate range of 1 to 3% by weight)” and the Solubility in toluene ([3]; in toluene) was “.largecircle. (a solubility in the approximate range of 1 to 3% by weight)”.
In the case of CCc1ccc(Cl)c(CC)c1Nc1c(F)c2c(c(F)c1Nc1c(CC)ccc(Cl)c1CC)C(=O)c1c(O)ccc(O)c1C2=O [(141)], the Stability in storage [2] is reported as “Good”.
In the case of CCCCCCCCOc1c(Nc2cccc(C(=O)OCC)c2)c(Nc2cccc(C(=O)OCC)c2)c(F)c2c1C(=O)c1c(O)ccc(O)c1C2=O [(156)], the Stability in storage [2] is reported as “Good”.
With CCCCOc1c(Nc2c(CC)cccc2CC)c(Nc2c(CC)cccc2CC)c(F)c2c1C(=O)c1c(O)ccc(O)c1C2=O [(158)] the Stability in storage [2] was “Good”.
In the case of CCCCOc1c(Nc2c(C(C)C)cccc2C(C)C)c(Nc2c(C(C)C)cccc2C(C)C)c(F)c2c1C(=O)c1c(O)ccc(O)c1C2=O [(159)], the Stability in storage [2] is reported as “Good”.
In the case of CCCCOc1c(Nc2c(CC)ccc(Cl)c2CC)c(Nc2c(CC)ccc(Cl)c2CC)c(F)c2c1C(=O)c1c(O)ccc(O)c1C2=O [(160)], the Stability in storage [2] is reported as “Good”.
In the case of CCCCOc1c(Nc2c(C)cccc2C(=O)OCC)c(Nc2c(C)cccc2C(=O)OCC)c(F)c2c1C(=O)c1c(O)ccc(O)c1C2=O [(162)], the Stability in storage [2] is reported as “Good”.
In the case of CCCCCCCCOc1c(Nc2c(Cl)cccc2Cl)c(Nc2c(Cl)cccc2Cl)c(F)c2c1C(=O)c1c(O)ccc(O)c1C2=O [(183)], the Stability in storage [2] is reported as “Good”.
For CCCCNc1c(F)c2c(c(F)c1Nc1cccc(C(=O)OCC)c1)C(=O)c1c(O)ccc(O)c1C2=O [(227)], the λ max ([1]; in chloroform) was 661 nm, the ε ([1]; in chloroform, at λ max) was 21000 and the Color tone (Color tone of the dye) was “Cyan”. For the same compound, the “Solubility in methyl ethyl ketone” value [3] was “.largecircle. (a solubility in the approximate range of 1 to 3% by weight)” and the Solubility in toluene ([3]; in toluene) was “.largecircle. (a solubility in the approximate range of 1 to 3% by weight)”.
For CCCCNc1c(F)c2c(c(F)c1Nc1ccc(OC)cc1)C(=O)c1c(O)ccc(O)c1C2=O [(228)], the λ max ([1]; in chloroform) was 666 nm, the ε ([1]; in chloroform, at λ max) was 22800 and the Color tone (Color tone of the dye) was “Cyan”. For the same compound, the “Solubility in methyl ethyl ketone” value [3] was “.largecircle. (a solubility in the approximate range of 1 to 3% by weight)” and the Solubility in toluene ([3]; in toluene) was “.largecircle. (a solubility in the approximate range of 1 to 3% by weight)”.
In the case of CCCCNc1c(F)c2c(c(F)c1Nc1ccccc1)C(=O)c1c(O)ccc(O)c1C2=O [(229)], the λ max ([1]; in chloroform) is reported as 666 nm, the ε ([1]; in chloroform, at λ max) is reported as 15300 and the Color tone (Color tone of the dye) is reported as “Cyan”. For the same compound, the “Solubility in methyl ethyl ketone” value [3] was “.largecircle. (a solubility in the approximate range of 1 to 3% by weight)” and the Solubility in toluene ([3]; in toluene) was “.largecircle. (a solubility in the approximate range of 1 to 3% by weight)”.
For CCCCNc1c(F)c2c(c(NCCCC)c1NCCCC)C(=O)c1c(O)ccc(O)c1C2=O [(248)], the λ max ([1]; in chloroform) was 614 nm, the ε ([1]; in chloroform, at λ max) was 14900 and the Color tone (Color tone of the dye) was “Blue”. The “Solubility in methyl ethyl ketone” value [3] was “.largecircle. (a solubility in the approximate range of 1 to 3% by weight)” and the Solubility in toluene ([3]; in toluene) was “.largecircle. (a solubility in the approximate range of 1 to 3% by weight)”.
With Nc1c(Sc2ccccc2)c(Sc2ccccc2)c(F)c2c1C(=O)c1c(O)ccc(O)c1C2=O [(296)] the λ max ([1]; in chloroform) was 542 nm, the ε ([1]; in chloroform, at λ max) was 12300 and the Color tone (Color tone of the dye) was “Purple”. For the same compound, the “Solubility in methyl ethyl ketone” value [3] was “.largecircle. (a solubility in the approximate range of 1 to 3% by weight)” and the Solubility in toluene ([3]; in toluene) was “.largecircle. (a solubility in the approximate range of 1 to 3% by weight)”.
In the case of O=C1c2c(O)ccc(O)c2C(=O)c2c(Nc3ccccc3)c(Sc3ccccc3)c(Sc3ccccc3)c(Nc3ccccc3)c21 [(297)], the λ max ([1]; in chloroform) is reported as 692 nm, the ε ([1]; in chloroform, at λ max) is reported as 15900 and the Color tone (Color tone of the dye) is reported as “Cyan”. The “Solubility in methyl ethyl ketone” value [3] was “.largecircle. (a solubility in the approximate range of 1 to 3% by weight)” and the Solubility in toluene ([3]; in toluene) was “.largecircle. (a solubility in the approximate range of 1 to 3% by weight)”.
For O=C1c2c(O)ccc(O)c2C(=O)c2c(F)c(Sc3ccccc3)c(Sc3ccccc3)c(F)c21 [(298)], the λ max ([1]; in chloroform) was 489 nm, the ε ([1]; in chloroform, at λ max) was 12700 and the Color tone (Color tone of the dye) was “Orange”. For the same compound, the “Solubility in methyl ethyl ketone” value [3] was “.largecircle. (a solubility in the approximate range of 1 to 3% by weight)” and the Solubility in toluene ([3]; in toluene) was “.circleincircle. (a solubility of not less than 3% by weight)”.
In the case of O=C(O)c1c(F)c(F)c(Sc2c(F)c3c(c(F)c2Sc2c(F)c(F)c(C(=O)O)c(F)c2F)C(=O)c2c(O)ccc(O)c2C3=O)c(F)c1F [(299)], the λ max ([1]; in chloroform) is reported as 510 nm, the ε ([1]; in chloroform, at λ max) is reported as 12600 and the Color tone (Color tone of the dye) is reported as “Cinnabar”. The “Solubility in methyl ethyl ketone” value [3] was “Δ (a solubility of less than 1% by weight)” and the Solubility in toluene ([3]; in toluene) was “Δ (a solubility of less than 1% by weight)”.
For N#Cc1c(F)c(F)c(Sc2c(F)c3c(c(F)c2Sc2c(F)c(F)c(C#N)c(F)c2F)C(=O)c2c(O)ccc(O)c2C3=O)c(F)c1F [(300)], the λ max ([1]; in chloroform) was 521 nm, the ε ([1]; in chloroform, at λ max) was 13200 and the Color tone (Color tone of the dye) was “Cinnabar”. The “Solubility in methyl ethyl ketone” value [3] was “Δ (a solubility of less than 1% by weight)” and the Solubility in toluene ([3]; in toluene) was “Δ (a solubility of less than 1% by weight)”.
For O=C1c2c(O)ccc(O)c2C(=O)c2c(F)c(Sc3ccc(O)cc3)c(Sc3ccc(O)cc3)c(F)c21 [(301)], the λ max ([1]; in chloroform) was 514 nm, the ε ([1]; in chloroform, at λ max) was 12900 and the Color tone (Color tone of the dye) was “Cinnabar”. The “Solubility in methyl ethyl ketone” value [3] was “.largecircle. (a solubility in the approximate range of 1 to 3% by weight)” and the Solubility in toluene ([3]; in toluene) was “.largecircle. (a solubility in the approximate range of 1 to 3% by weight)”.
In the case of COc1ccc(Sc2c(F)c3c(c(F)c2Sc2ccc(OC)cc2)C(=O)c2c(O)ccc(O)c2C3=O)cc1 [(302)], the λ max ([1]; in chloroform) is reported as 504 nm, the ε ([1]; in chloroform, at λ max) is reported as 15100 and the Color tone (Color tone of the dye) is reported as “Cinnabar”. The “Solubility in methyl ethyl ketone” value [3] was “.largecircle. (a solubility in the approximate range of 1 to 3% by weight)” and the Solubility in toluene ([3]; in toluene) was “.largecircle. (a solubility in the approximate range of 1 to 3% by weight)”.
In the case of CCCCCCSc1c(F)c2c(c(F)c1SCCCCCC)C(=O)c1c(O)ccc(O)c1C2=O [(303)], the λ max ([1]; in chloroform) is reported as 506 nm, the ε ([1]; in chloroform, at λ max) is reported as 11300 and the Color tone (Color tone of the dye) is reported as “Orange”. For the same compound, the “Solubility in methyl ethyl ketone” value [3] was “.largecircle. (a solubility in the approximate range of 1 to 3% by weight)” and the Solubility in toluene ([3]; in toluene) was “.largecircle. (a solubility in the approximate range of 1 to 3% by weight)”.
For CCCCCCCCSc1c(F)c2c(c(F)c1SCCCCCCCC)C(=O)c1c(O)ccc(O)c1C2=O [(304)], the λ max ([1]; in chloroform) was 504 nm, the ε ([1]; in chloroform, at λ max) was 14600 and the Color tone (Color tone of the dye) was “Orange”. For the same compound, the “Solubility in methyl ethyl ketone” value [3] was “.largecircle. (a solubility in the approximate range of 1 to 3% by weight)” and the Solubility in toluene ([3]; in toluene) was “.largecircle. (a solubility in the approximate range of 1 to 3% by weight)”.
With CC(C)(C)Sc1c(F)c2c(c(F)c1SC(C)(C)C)C(=O)c1c(O)ccc(O)c1C2=O [(305)] the λ max ([1]; in chloroform) was 506 nm, the ε ([1]; in chloroform, at λ max) was 15300 and the Color tone (Color tone of the dye) was “Orange”. The “Solubility in methyl ethyl ketone” value [3] was “.circleincircle. (a solubility of not less than 3% by weight)” and the Solubility in toluene ([3]; in toluene) was “.circleincircle. (a solubility of not less than 3% by weight)”.
For O=C1c2c(O)ccc(O)c2C(=O)c2c(F)c(SC3CCCCC3)c(SC3CCCCC3)c(F)c21 [(306)], the λ max ([1]; in chloroform) was 508 nm, the ε ([1]; in chloroform, at λ max) was 14000 and the Color tone (Color tone of the dye) was “Orange”. The “Solubility in methyl ethyl ketone” value [3] was “.largecircle. (a solubility in the approximate range of 1 to 3% by weight)” and the Solubility in toluene ([3]; in toluene) was “.circleincircle. (a solubility of not less than 3% by weight)”.
In the case of O=C1c2c(O)ccc(O)c2C(=O)c2c(Sc3ccccc3)c(Sc3ccccc3)c(Sc3ccccc3)c(Sc3ccccc3)c21 [(307)], the λ max ([1]; in chloroform) is reported as 495 nm, the ε ([1]; in chloroform, at λ max) is reported as 12600 and the Color tone (Color tone of the dye) is reported as “Brown”. For the same compound, the “Solubility in methyl ethyl ketone” value [3] was “.largecircle. (a solubility in the approximate range of 1 to 3% by weight)” and the Solubility in toluene ([3]; in toluene) was “.largecircle. (a solubility in the approximate range of 1 to 3% by weight)”.
With CCCCSc1c(SCCCC)c(SCCCC)c2c(c1SCCCC)C(=O)c1c(O)ccc(O)c1C2=O [(308)] the λ max ([1]; in chloroform) was 530 nm, the ε ([1]; in chloroform, at λ max) was 11100 and the Color tone (Color tone of the dye) was “Magenta”. The “Solubility in methyl ethyl ketone” value [3] was “.largecircle. (a solubility in the approximate range of 1 to 3% by weight)” and the Solubility in toluene ([3]; in toluene) was “.circleincircle. (a solubility of not less than 3% by weight)”.
